# Reference: US20040076968A1, “Method for detecting pre-disposition to hepatotoxicity” (priority 2000, published 2004)
# Test system: UGT1A6 gene
# Assay: Association of UGT1A6 polymorphisms with liver function abnormality in tolcapone-treated patients (case-control genotyping)
# Type: in vivo, human
# Experimental: Disease severity had already been controlled for by the original study inclusion criteria.
# In the KTC format, the generation of double-stranded amplification product is monitored using a DNA intercalating dye and a thermal cycler which has a fluorescence-detecting CCD camera attached (PE-Bipsystems GeneAmp 5700 Sequence Detection System). Fluorescence in each well of the PCR amplification plate is measured at each cycle of annealing and denaturation. The cycle at which the relative fluorescence reached a threshold of 0.5 using the SDS sofiware from PE-Biosystems was defined as the Ct.
# The amplification reactions were designed to be allele-specific, so that the amplification reaction was positive if the polymorphism was present and the amplification reaction was negative if the polymorphism was absent. For each bi-allelic polymorphism, one well of the amplification plate was set up to be specific for allele 1 and a second well was set up to be specific for allele 2. For each polymorphism to be detected, three primers were designed—two allele-specific primers and one common primer (Table 3). Reactions for allele 1 contained allele 1-specific primer and the common primer and reactions for allele 2 contained allele 2-specific primer and the common primer.
# The Ct of each amplification reaction was determined and the difference between the Ct for allele 1 and allele 2 (delta Ct) was, used as the assay result. Samples with delta Cts between −3.0 and 3.0 were considered heterozygous (A1/A2). Samples with delta Cts below −3.0 were considered homozygous for A1 (A1/A1); samples with delta Cts above 3.0 were considered homozygous for A2 (A2/A2).
# For all other single nucleotide polymorphisms (SNPs) discovery and genotyping was done by double-stranded DNA sequencing using an ABI capillary sequencer and Big Dye chemistry (ABI). The primers used to amplify all exons are shown below and were also used as sequencing primers. Publicly available genomic sequences were used as references for primer design. All polymorphisms were targeted with these pairs-of-primer sets:
# The patient samples were divided into two groups.
# For each genotype, the following analyses were performed:
# a) Analysis of the entire genotype: patients were classified according to the following three categories: homozygous 1/1 (two copies of allele 1 and no copies of allele 2), heterozygous 1/2 (one copy of allele 1 and one copy of allele 2) or homozygous 2/2 (no copies of allele 1 and two copies of allele 2). Analysis was conducted to assess whether there were differences in the proportion of case patients in each of these groups, compared with the proportion of control patients. The Cochran-Maentel-Hanszel (CMH) test was applied to the data presented in a 2-by-3 table (the two columns indicating presence or absence of liver function abnormality and the three rows indicating the three categories of the genotype).
# b) Analysis of alleles: the presence of allele 1 or 2 in case patients was compared to the presence of the respective allele in the control patients.
# c) Analysis of allele counts: this analysis was conducted to compare the distribution of the alleles in patients with liver function abnormality to that of patients without abnormality. The total number of copies of allele 1 among patients with liver function abnormality was compared with the total number of copies of allele 2 among these case patients.
smiles,measurement,setting,value
Cc1ccc(C(=O)c2cc(O)c(O)c([N+](=O)[O-])c2)cc1 [tolcapone],n (%) of allele copies,"UGT1A6_528 A/G, Count Allele A, Liver Function Abnormality Absent",372 (70.2%)
same,n (%) of allele copies,"UGT1A6_528 A/G, Count Allele A, Liver Function Abnormality Present",148 (56.9%)
same,n (%) of allele copies,"UGT1A6_528 A/G, Count Allele G, Liver Function Abnormality Absent",158 (29.8%)
same,n (%) of allele copies,"UGT1A6_528 A/G, Count Allele G, Liver Function Abnormality Present",112 (43.1%)
same,n (%) of patients,"UGT1A6_528 A/G, Genotype Heterozygous A/G, Liver Function Abnormality Absent",114 (43.0%)
same,n (%) of patients,"UGT1A6_528 A/G, Genotype Heterozygous A/G, Liver Function Abnormality Present",60 (46.2%)
same,n (%) of patients,"UGT1A6_528 A/G, Genotype Homozygous A/A, Liver Function Abnormality Absent",129 (48.7%)
same,n (%) of patients,"UGT1A6_528 A/G, Genotype Homozygous A/A, Liver Function Abnormality Present",44 (33.8%)
same,n (%) of patients,"UGT1A6_528 A/G, Genotype Homozygous G/G, Liver Function Abnormality Absent",22 (8.3%)
same,n (%) of patients,"UGT1A6_528 A/G, Genotype Homozygous G/G, Liver Function Abnormality Present",26 (20.0%)
same,n (%) of patients,"UGT1A6_754 Thr181Ala, Allele Ala Absent, Liver Function Abnormality Absent",144 (52.6%)
same,n (%) of patients,"UGT1A6_754 Thr181Ala, Allele Ala Absent, Liver Function Abnormality Present",51 (37.8%)
same,n (%) of patients,"UGT1A6_754 Thr181Ala, Allele Ala Present, Liver Function Abnormality Absent",130 (47.4%)
same,n (%) of patients,"UGT1A6_754 Thr181Ala, Allele Ala Present, Liver Function Abnormality Present",84 (62.2%)
same,n (%) of patients,"UGT1A6_754 Thr181Ala, Allele Thr Absent, Liver Function Abnormality Absent",22 (8.0%)
same,n (%) of patients,"UGT1A6_754 Thr181Ala, Allele Thr Absent, Liver Function Abnormality Present",25 (18.5%)
same,n (%) of patients,"UGT1A6_754 Thr181Ala, Allele Thr Present, Liver Function Abnormality Absent",252 (92.0%)
same,n (%) of patients,"UGT1A6_754 Thr181Ala, Allele Thr Present, Liver Function Abnormality Present",110 (81.5%)
same,n (%) of allele copies,"UGT1A6_754 Thr181Ala, Count Allele Ala, Liver Function Abnormality Absent",152 (27.7%)
same,n (%) of allele copies,"UGT1A6_754 Thr181Ala, Count Allele Ala, Liver Function Abnormality Present",109 (40.4%)
same,n (%) of allele copies,"UGT1A6_754 Thr181Ala, Count Allele Thr, Liver Function Abnormality Absent",396 (72.3%)
same,n (%) of allele copies,"UGT1A6_754 Thr181Ala, Count Allele Thr, Liver Function Abnormality Present",161 (59.6%)
same,n (%) of patients,"UGT1A6_754 Thr181Ala, Genotype Heterozygous Thr/Ala, Liver Function Abnormality Absent",108 (39.4%)
same,n (%) of patients,"UGT1A6_754 Thr181Ala, Genotype Heterozygous Thr/Ala, Liver Function Abnormality Present",59 (43.7%)
same,n (%) of patients,"UGT1A6_754 Thr181Ala, Genotype Homozygous Ala/Ala, Liver Function Abnormality Absent",22 (8.8%)
same,n (%) of patients,"UGT1A6_754 Thr181Ala, Genotype Homozygous Ala/Ala, Liver Function Abnormality Present",25 (18.5%)
same,n (%) of patients,"UGT1A6_754 Thr181Ala, Genotype Homozygous Thr/Thr, Liver Function Abnormality Absent",144 (52.6%)
same,n (%) of patients,"UGT1A6_754 Thr181Ala, Genotype Homozygous Thr/Thr, Liver Function Abnormality Present",51 (37.8%)
same,n (%) of patients,"UGT1A6_765 Arg184Ser, Allele Arg Absent, Liver Function Abnormality Absent",24 (8.8%)
same,n (%) of patients,"UGT1A6_765 Arg184Ser, Allele Arg Absent, Liver Function Abnormality Present",26 (19.3%)
same,n (%) of patients,"UGT1A6_765 Arg184Ser, Allele Arg Present, Liver Function Abnormality Absent",250 (91.2%)
same,n (%) of patients,"UGT1A6_765 Arg184Ser, Allele Arg Present, Liver Function Abnormality Present",109 (80.7%)
same,n (%) of patients,"UGT1A6_765 Arg184Ser, Allele Ser Absent, Liver Function Abnormality Absent",128 (46.7%)
same,n (%) of patients,"UGT1A6_765 Arg184Ser, Allele Ser Absent, Liver Function Abnormality Present",45 (33.3%)
same,n (%) of patients,"UGT1A6_765 Arg184Ser, Allele Ser Present, Liver Function Abnormality Absent",146 (53.3%)
same,n (%) of patients,"UGT1A6_765 Arg184Ser, Allele Ser Present, Liver Function Abnormality Present",90 (66.7%)
same,n (%) of allele copies,"UGT1A6_765 Arg184Ser, Count Allele Arg, Liver Function Abnormality Absent",378 (69.0%)
same,n (%) of allele copies,"UGT1A6_765 Arg184Ser, Count Allele Arg, Liver Function Abnormality Present",154 (57.0%)
same,n (%) of allele copies,"UGT1A6_765 Arg184Ser, Count Allele Ser, Liver Function Abnormality Absent",170 (31.0%)
same,n (%) of allele copies,"UGT1A6_765 Arg184Ser, Count Allele Ser, Liver Function Abnormality Present",116 (43.0%)
same,n (%) of patients,"UGT1A6_765 Arg184Ser, Genotype Heterozygous Arg/Ser, Liver Function Abnormality Absent",122 (44.5%)
same,n (%) of patients,"UGT1A6_765 Arg184Ser, Genotype Heterozygous Arg/Ser, Liver Function Abnormality Present",64 (47.4%)
same,n (%) of patients,"UGT1A6_765 Arg184Ser, Genotype Homozygous Arg/Arg, Liver Function Abnormality Absent",128 (46.7%)
same,n (%) of patients,"UGT1A6_765 Arg184Ser, Genotype Homozygous Arg/Arg, Liver Function Abnormality Present",45 (33.3%)
same,n (%) of patients,"UGT1A6_765 Arg184Ser, Genotype Homozygous Ser/Ser, Liver Function Abnormality Absent",24 (8.8%)
same,n (%) of patients,"UGT1A6_765 Arg184Ser, Genotype Homozygous Ser/Ser, Liver Function Abnormality Present",26 (19.3%)
